# Test results taken from PMC11513893, “Discovery of Oral Degraders of the ROS1 Fusion Protein with Potent Activity against Secondary Resistance Mutations” (Journal of Medicinal Chemistry, 2024).
# Like-named read-outs stand apart in the source and are kept apart here.
# Legend:
# ROS1 = ROS1 degradation in Ba/F3 cells (WES immunoblotting); assay type: cell-based; settings: for DC50: concentration needed to reduce ROS1 protein by 50%, Ba/F3 cells; for Dmax (%) (ROS1): maximal degradation of ROS1 in Ba/F3 cells
# Outline: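 ROS1 and phospho-ROS1 (Tyr2274/2334) in Ba/F3 lysates quantified by capillary immunoassay (WES) with chemiluminescent detection, duplicate experiments. Levels expressed as AUC of the chemiluminescence peak.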
# [1] = Pharmacokinetics study in Sprague–Dawley rats; assay type: in vivo; settings: rat
# [2] = Metabolic stability in rat microsomes; assay type: in vitro ADME; settings: rat, pooled rat microsomes, pH 7.4, 250 nM compound, NADPH, 37 °C; for half-life at 1 h, 0.25 µM: read-out: metabolic stability in rat microsomes T1/2
# Experimental: (§1) Pooled human and rat microsomes were prepared and stored at −80 °C prior to use. A master-mix containing microsome, phosphate buffer, and test compound (9 series) solution was made as follows: (1) 3 μL of microsome (20 mg/mL) was diluted with mixed 30 μL of potassium phosphate buffer (pH 7.4; 10×) and 246 μL of water; (2) 3 μL of 25 μM drug solution was added to the microsome; (3) the master solution was prewarmed at 37 °C for 5 min. NADPH solution A (15 μL) and NADPH solution B (3 μL) from Promega were added to the above-mentioned master solution to initiate the reaction. The final concentration of 9 compounds in the reaction system was 250 nM. An aliquot of 20 μL was pipetted from the reaction solution and stopped by the addition of 180 μL of cold MeCN containing 25 ng of Tamoxifen-(N,N-dimethyl-13C2)-15N as an internal standard at the designated time points (0, 5, 15, 30, 45, and 60 min). The incubation solution was vortexed-mixed (800 rpm/10 min) and centrifuged at 3500 rpm for 10 min to precipitate proteins. The supernatant was collected and used for the LC/MS/MS analysis. The natural log of the remaining percentage of the test compound was plotted against time and the gradient of the line was determined.
# Log P measurement = assay type: physicochemical
# Excerpt: An important physicochemical property for a PROTAC molecule is its lipophilicity that largely dictates its pharmaceutical performance such as absorption, permeability, and distribution.
# [3] = test system: Ba/F3 CD74-ROS1 non mutant; experiment: Antiproliferation assay (Alamar Blue, 72 h); assay type: cell-based, mouse; settings: cell growth inhibition
# [4] = Pharmacokinetics study in Sprague–Dawley rats; assay type: in vivo; settings: rat; remark: listed apart in the source
# Experimental: Four to 6 weeks old Sprague–Dawley rats [Crl: CD (SD)] (SPF/VAF) were purchased from Charles River (Wilmington MA). Animals were quarantined/acclimated for 2–6 weeks prior to dose initiation. Sprague–Dawley rats were given oral administration of test compounds (20% PG, 5% Solutol, and 75% of 20% HP-β-CD in water) at different dose levels. After treatment with the compounds, whole blood was collected from each study animal by puncture of the tail vein (0.4 mL of whole blood from rats) into tubes containing K2EDTA at each time point. The plasma samples were divided into 2 aliquots (approximately equal in volume) and stored frozen at −75 ± 15 °C within 2 h of the collection until analysis.
# The stock solution of the test compound (0.01 M) in DMSO was prepared and stored at −20 ± 5 °C. The desired serial concentrations of working reference analyte solutions were achieved by diluting a stock analyte solution with 50% acetonitrile (0.1% formic acid) in water solution. The bioanalytical LC–MS/MS method was developed for quantitative determination of each test compound in Sprague–Dawley rat plasma with acceptable selectivity, sensitivity, calibration curve, precision, and accuracy. The analytical method is applicable for the determination of test compounds in Sprague–Dawley rat plasma with a lower limit of quantification of 10.0 ng/mL and an upper limit of quantification of 5000 ng/mL. Five microliters of diluted supernatant was injected into the LC–MS/MS system (TSQ Quantis) and a SynergiTM 4 μm Fusion-RP 80 Å (50 × 2 mm) column using gradient elution and a Triple Quad mass spectrometer) for quantitative analysis. The mobile phases used were 0.1% formic acid in deionized water and 0.1% formic acid in acetonitrile. The pharmacokinetic parameters T1/2 (the biological half-life), Cmax (maximal concentration), Tmax (time at which Cmax is observed), and AUC (area under the plasma concentration–time curve) were calculated from the plasma concentration versus time data using WinNonlin (PhoenixTM, version 8.1, Mountain View, CA, USA).
# Ba/F3 ROS1-G2032R = experiment: Antiproliferation assay; assay type: cell-based, mouse; settings: Mus musculus, BaF3; Ba/F3 cells, cell growth inhibition, 72 h
# [5] = Metabolic stability in human microsomes; assay type: in vitro ADME; settings: human, pooled human microsomes, pH 7.4, 250 nM compound, NADPH, 37 °C; for half-life at 1 h, 0.25 µM: read-out: metabolic stability in human microsomes T1/2
# Experimental: as §1
# Ba/F3 ROS1 L2086F = experiment: Antiproliferation assay; assay type: cell-based; settings: Mus musculus, BaF3; Ba/F3 cells, cell growth inhibition
# Excerpt: To assess targeted degradation of ROS1 fusion proteins, we first established a mouse pro-B cell line Ba/F3 as a model expressing the CD74-ROS1 oncogene or CD74-ROS1 with clinically observed secondary/tertiary mutations. The Ba/F3 cell line is dependent on interleukin-3 for survival and proliferation. Upon transduction of oncogenic ROS1, Ba/F3 cells become independent of interleukin-3 but dependent on the transduced driver gene. The Ba/F3 models have been effectively employed in the discovery and preclinical development of next generation ROS1 inhibitors.[11],[14],[15] We have tested ROS1 inhibitors against these Ba/F3 cells to validate their sensitivity and resistance to ROS1 inhibition.
# (§2) Ba/F3 immortalized murine bone marrow–derived pro-B cells were obtained from Creative Biogene (Shirley, NY) and cultured in RPMI supplemented with 10% FBS and IL3 (0.5 ng/mL). Ba/F3 cells expressing ROS1 variants were maintained in RPMI supplemented with 10% FBS and puromycin (0.7 mg/mL). Crizotinib, ceritinib, brigatinib, repotrectinib, and lorlatinib were purchased from MedChem Express. Each compound was dissolved in DMSO and serially diluted in RPMI for cell culture experiments.
# (§3) To assess the 72 h effect of drug treatment on cell proliferation, 2000 to 3000 cells were plated in replicates of three in 96-well plates. The plates were placed in an incubator at 37 °C, 5% CO2 for 72 h. Following drug treatments, the cells were incubated with the Alamar Blue Assay reagent (BioRad), 5 μL each well for 4 h at 37 °C and 5% CO2. Luminescence was measured on a multiplate reader and analyzed. […] IC50 values were determined using a nonlinear regression model with a sigmoidal dose response in GraphPad. The data were collected based on triplicate experiments, and presented as mean ± SD.
# cDNA encoding CD74-ROS1 or mutant CD74–ROS1 was cloned into retroviral expression vectors (pLenti), and viruses were generated in HEK293T cells by transfecting with packaging plasmids. The resulting virus was used to infect Ba/F3 cells. After retroviral infection, Ba/F3 cells were selected by incubation with puromycin (0.7 mg/mL) for 2 weeks. For Ba/F3 cells infected by the CD74–ROS1 variants, IL3 was withdrawn from the culture medium at least 2 weeks before the experiments.
# Ba/F3 ROS1 G2032R-F2075V = experiment: Antiproliferation assay; assay type: cell-based; settings: Mus musculus, BaF3; Ba/F3 cells, cell growth inhibition
# Excerpt: (§4) To assess targeted degradation of ROS1 fusion proteins, we first established a mouse pro-B cell line Ba/F3 as a model expressing the CD74-ROS1 oncogene or CD74-ROS1 with clinically observed secondary/tertiary mutations. The Ba/F3 cell line is dependent on interleukin-3 for survival and proliferation. Upon transduction of oncogenic ROS1, Ba/F3 cells become independent of interleukin-3 but dependent on the transduced driver gene.
# as §2, with “Crizotinib, ceritinib, brigatinib, repotrectinib, and lorlatinib were purchased from MedChem Express.” left out
# as §3
# (§5) The resulting virus was used to infect Ba/F3 cells. After retroviral infection, Ba/F3 cells were selected by incubation with puromycin (0.7 mg/mL) for 2 weeks. For Ba/F3 cells infected by the CD74–ROS1 variants, IL3 was withdrawn from the culture medium at least 2 weeks before the experiments.
# Ba/F3 ROS1 D2033N = experiment: Antiproliferation assay; assay type: cell-based; settings: Mus musculus, BaF3; Ba/F3 cells, cell growth inhibition
# Excerpt: as §4
# as §2, with “Crizotinib, ceritinib, brigatinib, repotrectinib, and lorlatinib were purchased from MedChem Express.” left out
# as §3, §5
# Ba/F3 ROS1 L2026M = experiment: Antiproliferation assay; assay type: cell-based; settings: Mus musculus, BaF3; Ba/F3 cells, cell growth inhibition
# Excerpt: as §4
# as §2, with “Crizotinib, ceritinib, brigatinib, repotrectinib, and lorlatinib were purchased from MedChem Express.” left out
# as §3, §5
# [6] = Mus musculus, BaF3, 72 h, Ba/F3 cells
# [7] = Sprague-Dawley [Crl: CD (SD)], plasma, 10 mg/kg po
# [8] = Sprague-Dawley [Crl: CD (SD)], plasma, 10 mg/kg po, read-out: AUC (po)
# [9] = Sprague-Dawley [Crl: CD (SD)], plasma, 10 mg/kg po, read-out: Tmax
DC50 (ROS1),"microsomal CLint at 1 h, 0.25 µM [2]","half-life at 1 h, 0.25 µM [2]",logP (Log P measurement),"IC50 [3, 6]",IC50 (Ba/F3 ROS1-G2032R),"microsomal CLint at 1 h, 0.25 µM [5]","half-life at 1 h, 0.25 µM [5]","Cmax at 24 h [4, 7]","half-life [4, 7]","AUC [4, 8]","Tmax [4, 9]",SMILES,Dmax (%) (ROS1) (ROS1),other results
9 nM,9.6 µL/min/mg,2.41 h,3.07,8 ± 0.9 nM,120 ± 27 nM,94.5 µL/min/mg,0.615 h,–,–,–,–,"COc1cc(N2CCN(CC3CN(c4ccc5c(c4)CN(C4CCC(=O)NC4=O)C5=O)C3)CC2)ccc1Nc1ncc(Cl)c(Nc2ccccc2P(C)(C)=O)n1 (centres unmarked) [9m, 3-(5-(3-((4-(4-((5-Chloro-4-((2-(dimethylphosphoryl)phenyl)amino)pyrimidin-2-yl)amino)-3-methoxyphenyl)piperazin-1-yl)methyl)azetidin-1-yl)-1-oxoisoindolin-2-yl)piperidine-2,6-dione]",94%,"AUC (iv) ([1]; 0.5 mg/kg iv): 2151 ng·h/mL; Cmax at 24 h ([4]; Sprague-Dawley [Crl: CD (SD)], plasma, 5 mg/kg po): 145 ng/mL; bioavailability ([4]; Sprague-Dawley [Crl: CD (SD)], plasma, 5 mg/kg po vs 0.5 mg/kg iv): 4.8%; AUC (po) ([4]; 5 mg/kg po): 1032 ng·h/mL; T1/2 ([4]; 5 mg/kg po): 8.88 h; Tmax ([4]; 5 mg/kg po): 1 h"
22 nM,77 µL/min/mg,0.3 h,2.35,19 ± 8 nM,236 ± 28 nM,87 µL/min/mg,0.663 h,2340 ng/mL,6.81 h,31700 ng·h/mL,3 h,"COc1cc(N2CCN(CC3CCN(c4ccc5c(c4)C(=O)N(C4CCC(=O)NC4=O)C5=O)CC3)CC2)ccc1Nc1ncc(Cl)c(Nc2ccccc2P(C)(C)=O)n1 (centres unmarked) [9c, 5-(4-((4-(4-((5-Chloro-4-((2-(dimethylphosphoryl)phenyl)amino)pyrimidin-2-yl)amino)-3-methoxyphenyl)piperazin-1-yl)methyl)piperidin-1-yl)-2-(2,6-dioxopiperidin-3-yl)isoindoline-1,3-dione]",95%,"AUC ([4]; Sprague-Dawley [Crl: CD (SD)], plasma, 2 mg/kg iv, read-out: AUC (iv)): 29400 ng·h/mL; bioavailability ([4]; Sprague-Dawley [Crl: CD (SD)], plasma, 10 mg/kg po vs 2 mg/kg iv): 21.6%"
13 nM,8.8 µL/min/mg,2.62 h,2.88,11.2 nM,27 ± 10 nM,63.4 µL/min/mg,0.917 h,284 ng/mL,8.32 h,3030 ng·h/mL,2 h,"COc1cc(N2CCC(N3CCN(CC4CCN(c5ccc6c(c5)C(=O)N(C5CCC(=O)NC5=O)C6=O)CC4)CC3)CC2)ccc1Nc1ncc(Cl)c(Nc2ccccc2P(C)(C)=O)n1 (centres unmarked) [9f, 5-(4-((4-(1-(4-((5-Chloro-4-((2-(dimethylphosphoryl)phenyl)amino)pyrimidin-2-yl)amino)-3-methoxyphenyl)piperidin-4-yl)piperazin-1-yl)methyl)piperidin-1-yl)-2-(2,6-dioxopiperidin-3-yl)isoindoline-1,3-dione]",99%,"AUC (iv) ([1]; 1 mg/kg iv): 3093 ng·h/mL; IC50 ([3]; Ba/F3 cells): 11 ± 2 nM; bioavailability ([4]; Sprague-Dawley [Crl: CD (SD)], plasma, 10 mg/kg po vs 1 mg/kg iv): 9.8%"
338 nM,–,–,–,284 ± 51 nM,> 5000 nM,–,–,–,–,–,–,"C[C@@H](Oc1cc(-c2cnn(C3CCN(CC4CCN(CC5CCN(c6ccc7c(c6)C(=O)N(C6CCC(=O)NC6=O)C7=O)CC5)CC4)CC3)c2)cnc1N)c1c(Cl)ccc(F)c1Cl (stereo partly drawn) [7i, 5-(4-((4-((4-(4-(6-Amino-5-((R)-1-(2,6-dichloro-3-fluorophenyl)ethoxy)pyridin-3-yl)-1H-pyrazol-1-yl)piperidin-1-yl)methyl)piperidin-1-yl)methyl)piperidin-1-yl)-2-(2,6-dioxopiperidin-3-yl)isoindoline-1,3-dione]",32%,–

SMILES,DC50 (ROS1),"microsomal CLint at 1 h, 0.25 µM [2]","half-life at 1 h, 0.25 µM [2]",logP (Log P measurement),"IC50 [3, 6]",IC50 (Ba/F3 ROS1-G2032R),"microsomal CLint at 1 h, 0.25 µM [5]","half-life at 1 h, 0.25 µM [5]","Cmax at 24 h [4, 7]","half-life [4, 7]","AUC [4, 8]","Tmax [4, 9]",Dmax (%) (ROS1) (ROS1),other results
CN1CCN(c2ccc(C(=O)Nc3n[nH]c4ccc(Cc5cc(F)cc(F)c5)cc34)c(NC3CCOCC3)c2)CC1 [entrectinib],–,–,–,–,–,980 ± 77 nM,–,–,–,–,–,–,–,"IC50 (Ba/F3 ROS1 L2086F): 506 ± 97 nM; IC50 ([3]; Mus musculus, BaF3, Ba/F3 cells): 2.4 ± 0.4 nM; IC50 (Ba/F3 ROS1 G2032R-F2075V): > 2000 nM; IC50 (Ba/F3 ROS1 D2033N): 132 ± 15 nM; IC50 (Ba/F3 ROS1 L2026M): 56 ± 7 nM"
